Several values for one entry are separate records, joined by “and”; a condition that tells them apart may be missing. Equal values may be shown once.
Tests used:
T. brucei = assay: Growth inhibition assay of T. brucei cell cultures (Alamar Blue, 48 h); assay type: cell-based; conditions: Trypanosoma brucei; read-out: B) T. brucei EC50
MetRS (T. brucei) = MetRS (T. brucei) (Trypanosoma brucei brucei, UniProt Q38C91); assay: MetRS (T. brucei) ATP depletion assay using Kinase-Glo; assay type: biochemical
Sequence of MetRS (T. brucei) (Q38C91 entry or part of it): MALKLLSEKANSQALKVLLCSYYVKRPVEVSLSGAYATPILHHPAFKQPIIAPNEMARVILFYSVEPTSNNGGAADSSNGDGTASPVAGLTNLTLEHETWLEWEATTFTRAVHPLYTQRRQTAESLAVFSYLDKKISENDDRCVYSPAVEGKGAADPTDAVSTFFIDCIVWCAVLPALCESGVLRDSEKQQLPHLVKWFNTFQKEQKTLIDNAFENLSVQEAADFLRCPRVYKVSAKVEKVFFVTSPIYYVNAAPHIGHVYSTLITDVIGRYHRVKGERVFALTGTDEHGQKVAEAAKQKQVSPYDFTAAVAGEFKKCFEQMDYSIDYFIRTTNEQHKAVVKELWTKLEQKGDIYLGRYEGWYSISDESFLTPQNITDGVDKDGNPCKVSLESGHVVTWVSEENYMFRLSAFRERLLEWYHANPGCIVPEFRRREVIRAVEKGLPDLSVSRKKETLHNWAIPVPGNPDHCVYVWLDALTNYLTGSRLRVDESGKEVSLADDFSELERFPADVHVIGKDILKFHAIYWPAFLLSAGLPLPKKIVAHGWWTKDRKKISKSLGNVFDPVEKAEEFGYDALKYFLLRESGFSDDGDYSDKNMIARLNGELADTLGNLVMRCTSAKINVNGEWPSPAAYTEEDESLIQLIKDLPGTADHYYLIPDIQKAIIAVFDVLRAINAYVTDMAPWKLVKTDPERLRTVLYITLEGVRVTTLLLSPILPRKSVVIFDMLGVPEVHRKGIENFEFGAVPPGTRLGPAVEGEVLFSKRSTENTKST

Row | Compound | EC50 (T. brucei) | IC50 (MetRS (T. brucei))
1 | COC(=O)N(CCCNc1nc2ccc(F)nc2[nH]1)Cc1cc(Cl)cc(Cl)c1 [Compound 1964, methyl 3,5-dichlorobenzyl3-(5-fluoro-3H-imidazo[4,5-b]pyridin-2-ylamino)propylcarbamate] | 36.6 nM | 17 nM
2 | Clc1cc(Cl)cc(NC[C@H]2CCCN(c3nc4nc(Cl)ccc4[nH]3)C2)c1 [Compound 1922, (R)-3,5-dichloro-N-((1-(5-chloro-1H-imidazo[4,5-b]pyridin-2-yl)piperidin-3-yl)methyl)aniline] | 2760 nM | 140 nM
3 | O=C(Cc1ccc(Cl)cc1Cl)NCc1nc2ncc(Cl)cc2[nH]1 [Compound 1878, N-({6-chloro-1H-imidazo[4,5-b]pyridin-2-yl}methyl)-2-(2,4-dichlorophenyl)acetamide] | 7520 nM | 195 nM
4 | O=C(CCNc1ccc(Cl)cc1Cl)NCc1nc2ccccc2[nH]1 [Compound 1763, N-(1H-Benzoimidazol-2-ylmethyl)-3-(2,4-dichloro-phenylamino)-propionamide] | 12700 nM | 168 nM
5 | Nc1nc(Cl)ccc1NC(=O)C1CN(C(=O)Cc2cc(Cl)cc(Cl)c2)CCN1 (stereo not shown) [Compound 1791, N-(2-amino-6-chloropyridin-3-yl)-4-(2-(3,5-dichlorophenyl)acetyl) piperazine-2-carboxamide] | > 20000 nM | 8480 nM
6 | O=C(NCc1cc(Cl)cc(Cl)c1)NCc1nc2ccc(Cl)nc2[nH]1 [Compound 1991, 3-({5-chloro-3H-imidazo[4,5-b]pyridin-2-yl}methyl)-1-[(3,5-dichlorophenyl)methyl]urea] | 2070 nM | 18 nM
7 | O=C(NCCc1ccc(Cl)cc1Cl)NCc1nc2ccccc2[nH]1 [Compound 1702, 1-((1H-benzo[d]imidazol-2-yl)methyl)-3-(2,4-dichlorophenethyl)urea] | 4970 nM | 9 nM and 11 nM
8 | CC(Cc1nc2c(Cl)cc(Cl)cc2[nH]1)NCc1cc(Cl)cc(Cl)c1 (stereo not shown) [Compound 1823, [1-(4,6-dichloro-1H-1,3-benzodiazol-2-yl)propan-2-yl][(3,5-dichlorophenyl)methyl]amine] | 4560 nM | 2290 nM
9 | CCC(=O)NC(CC(=O)NCc1cc(Cl)cc(Cl)c1)c1nc2ccc(Cl)nc2[nH]1 (stereo not shown) [Compound 1968, 3-{5-chloro-3H-imidazo[4,5-b]pyridin-2-yl}-N-[(3,5-dichlorophenyl)methyl]-3-propanamidopropanamide] | > 20000 nM | 1860 nM
10 | COc1ccc(Oc2cccc(NCc3nc4ccccc4[nH]3)n2)c(Cl)c1 [Compound 1924, N-((1H-benzo[d]imidazol-2-yl)methyl)-6-(2-chloro-4-methoxyphenoxy)pyridin-2-amine] | 3280 nM | 165 nM
11 | CCOc1c(Br)cc(Cl)cc1CN[C@H]1CCCN(c2nc3nc(Cl)ccc3[nH]2)C1 [Compound 1937, (S)—N-(3-bromo-5-chloro-2-ethoxybenzyl)-1-(5-chloro-1H-imidazo[4,5-b]pyridin-2-yl)piperidin-3-amine] | 230 nM | 19 nM
12 | Clc1ccc(CN2CCC[C@H](c3nc4cc(Cl)ccc4[nH]3)C2)c(Cl)c1 [Compound 1837, (S)-5-chloro-2-(1-(2,4-dichlorobenzyl)piperidin-3-yl)-1H-benzo[d]imidazole] | 1340 nM | 119 nM
13 | CC(=O)N(Cc1cc(Cl)cc(Cl)c1)[C@H]1CCCN(c2nc3nc(F)ccc3[nH]2)C1 [Compound 1901, (S)—N-(3,5-dichlorobenzyl)-N-(1-(5-fluoro-1H-imidazo[4,5-b]pyridin-2-yl)piperidin-3-yl)acetamide] | 5100 nM | 692 nM
14 | O=C(NCc1nc2ccc(F)cc2[nH]1)OCCc1ccc(Cl)cc1Cl [Compound 1741, (6-Fluoro-1H-benzoimidazol-2-ylmethyl)-carbamic acid 2-(2,4-dichloro-phenyl)-ethyl ester] | 4220 nM | 132 nM
15 | CC(=O)N(Cc1cc(Cl)cc(Cl)c1)N1CCCC(c2nc3cc(F)ccc3[nH]2)C1 (stereo not shown) [Compound 1833, N-[(3,5-dichlorophenyl)methyl]-N-[3-(5-fluoro-1H-1,3-benzodiazol-2-yl)piperidin-1-yl]acetamide] | > 20000 nM | > 10000 nM
16 | COC(=O)[C@H](Cc1ccc(Cl)cc1Cl)NC(=O)NCc1nc2ccccc2[nH]1 [Compound 1755, methyl (2S)-2-{[(1H-1,3-benzodiazol-2-ylmethyl)carbamoyl]amino}-3-(2,4-dichlorophenyl)propanoate] | > 10000 nM | 1390 nM
17 | N[C@@H](CC(=O)NCc1nc2ccccc2[nH]1)Cc1ccc(F)cc1 [Compound 1703, (3R)-3-amino-N-(1H-1,3-benzodiazol-2-ylmethyl)-4-(4-fluorophenyl)butanamide] | > 10000 nM | 12100 nM
18 | Clc1cc(Cl)cc(CNCCSc2nc3nc(Cl)ccc3[nH]2)c1 [Compound 1896, [2-({5-chloro-1H-imidazo[4,5-b]pyridin-2-yl}sulfanyl)ethyl][(3,5-dichlorophenyl)methyl]amine] | 1400 nM | 1050 nM
19 | CCCOc1c(Cl)cc(Cl)cc1CN[C@H]1CCCN(c2nc3nc(Cl)ccc3[nH]2)C1 [Compound 1927, (S)-1-(5-chloro-1H-imidazo[4,5-b]pyridin-2-yl)-N-(3,5-dichloro-2-propoxybenzyl)piperidin-3-amine] | 827 nM | 47 nM
20 | Fc1ccc2[nH]c(CCCNCc3cc(Cl)cc(Cl)c3)nc2n1 [Compound 1858, N-(3,5-dichlorobenzyl)-3-(5-fluoro-1H-imidazo[4,5-b]pyridin-2-yl)propan-1-amine] | 1890 nM | 340 nM
21 | CCNc1c(Cl)cc(Cl)cc1CN[C@H]1CCCN(c2nc3nc(Cl)ccc3[nH]2)C1 [Compound 1940, (S)-1-(5-chloro-1H-imidazo[4,5-b]pyridin-2-yl)-N-(3,5-dichloro-2-(ethylamino)benzyl)piperidin-3-amine] | 359 nM | 42 nM
22 | CC(=O)N(Cc1cc(Cl)cc(Cl)c1)C1CCCC(c2nc3cc(Cl)ccc3[nH]2)C1 (stereo not shown) [Compound 1861, N-(3-(5-chloro-1H-benzo[d]imidazol-2-yl)cyclohexyl)-N-(3,5-dichlorobenzyl)acetamide] | 4440 nM | 1470 nM
23 | CC(=O)N(Cc1cc(Cl)cc(Cl)c1)C1CCCC(c2nc3cc(F)ccc3[nH]2)C1 (stereo not shown) [Compound 1860, N-(3,5-dichlorobenzyl)-N-(3-(5-fluoro-1H-benzo[d]imidazol-2-yl)cyclohexyl)acetamide] | 8570 nM | 6900 nM
24 | Clc1cc(Cl)cc(CN2CCC[C@@H](c3nc4cc(Cl)ccc4[nH]3)C2)c1 [Compound 1838, (R)-5-chloro-2-(1-(3,5-dichlorobenzyl)piperidin-3-yl)-1H-benzo[d]imidazole] | 8570 nM | > 10000 nM
25 | O=C(CCNCc1cc(Cl)cc(Cl)c1)Nc1nc2ncccc2[nH]1 [Compound 1576, 3-(3,5-dichlorobenzylamino)-N-(3H-imidazo[4,5-b]pyridin-2-yl)propanamide] | 403 nM | 109 nM
26 | Clc1cc(Cl)cc(CNCc2nc3ccc(Br)cc3[nH]2)c1 [Compound 1853, N-(3,5-dichlorobenzyl)(6-bromo-1H-benzo[d]imidazol-2-yl)methanamine] | > 20000 nM | > 10000 nM

Source: patent publication US10913736B2 (UNIVERSITY OF WASHINGTON, priority 2014, dated 2021)
